Key:
[1] = Cytotoxic activity on normal cells, MTT viability assay; assay type: cell-based, human; conditions: human, MRC-5 normal lung fibroblast cells; for viability at 24 h, 2.5 µM: sample conc. 2.5 µM; for viability at 24 h, 5 µM: sample conc. 5.0 µM; for viability at 24 h, 9.8 µM: sample conc. 9.8 µM; for viability at 24 h, 39.1 µM: sample conc. 39.1 µM; for CC50 at 24 h: MRC-5 cells, MTT
Summary of the method: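 MRC-5 fibroblasts seeded at 1×10^4 cells/well in DMEM with 10% FBS were exposed to two-fold serial dilutions of compound for 24 h at 37 °C, in triplicate. Viability was read by MTT (4 h, OD 590 nm) as % of untreated cells. IC50 was taken from dose-response curves.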

[2] = tested on: A. fumigatus (RCMB 002008); test: Agar well diffusion, inhibition zone; assay type: cell-based; conditions: 10 mg/mL of the tested compounds
Procedure: (§1) The antimicrobial activity of the free ligands and the corresponding Cu(II) complexes was determined against different categories of microbes (Table 5). All inhibition zones were determined at 10 mg/mL of the tested compounds. […] The largest inhibition zones were found for B. subtilis (25 mm), which is very close to the standard Gentamycin (26 mm). […] Complex 1 evidenced antimicrobial activity against all microbes except C. albicans.
(§2) Method S2: Antimi crobial studies a) Tested pathogenic microbes
(§3) The antibacterial a ctivity of the studied ligands and their Cu(II) complexes were evaluated against two Gram positive bacteria ((S. aureus (ATCC 25923) and B. subtilis (RCMB015(1)NRR LB-543)), two Gram negatvie bacteria ((E. coli (ATCC 25922) and P. vulgaris (RCMB 004(1)ATCC 13315)) and two fungi ((A. fumigatus […]
was used as standard antibacterial agent. The samples maintained in Brain heart infusion (BHI) at 20 °C; […] of each stock–c ulture was added to 3 mL of BHI […]
broth. […]
(§4) 0.5). In case of fungi A. fumigatus (RCMB 002008) and C. albicans (RCMB 005003(1) ATCC 10231), the used medium in antagonistic activity against tested fungi is Potato Dextrose Agar, where Fluconazole was used standard antifungal agent. b) Agar well diffusion method
(§5) Synthetic compounds were prepared at concentration 10 mg/mL dissolved in DMSO as stock solutions. Preparation of sterilized Mueller Hinton agar plates seeded with tested pathogenic b acteria occurred. The wells are done by sterilized cork borer in size […]
(§6) comparably with DMSO as control. The plates were incubated at 37°C for 24 h. after incubation period; antimicrobial activity was d etermined by inhibition zones. […]

[3] = tested on: C. albicans (RCMB 005003(1) ATCC 10231); test: Agar well diffusion, inhibition zone; assay type: cell-based; conditions: 10 mg/mL of the tested compounds
Procedure: as §1, §2
The antibacterial a ctivity of the studied ligands and their Cu(II) complexes were evaluated against two Gram positive bacteria ((S. aureus (ATCC 25923) and B. […]
as §4, §5, §6

[4] = tested on: B. subtilis (RCMB015(1)NRR LB-543); test: Agar well diffusion, inhibition zone; assay type: cell-based; conditions: 10 mg/mL of the tested compounds
Procedure: as §1, §2, §3
(§7) was used as standard antibacterial agent. The samples maintained in Brain heart infusion (BHI) at 20 °C; […] of each stock–c ulture was added to 3 mL of BHI broth. Overnight cultures were kept for 24 h at 37 °C ± 1 °C and the purity of cultures was checked aft er 24 h of incubation. […]
(§8) b) Agar well diffusion method
as §5, §6

E. coli (ATCC 25922) [5] = test: Agar well diffusion, inhibition zone; assay type: cell-based; conditions: 10 mg/mL of the tested compounds
Procedure: as §1, §2, §3, §7, §8, §5, §6

[6] = tested on: P. vulgaris (RCMB 004(1)ATCC 13315); test: Agar well diffusion, inhibition zone; assay type: cell-based; conditions: 10 mg/mL of the tested compounds
Procedure: as §1, §2, §3, §7, §8, §5, §6

S. aureus (ATCC 25923) [7] = test: Agar well diffusion, inhibition zone; assay type: cell-based; conditions: 10 mg/mL of the tested compounds
Procedure: as §1, §2, §3, §7, §8, §5, §6

[8] = tested on: B. subtilis (RCMB015(1)NRR LB-543); test: Minimum Inhibitory Concentration (MIC); assay type: cell-based
Procedure: as §2, §3, §7
(§9) c) Minimum Inhibitory Concentration (MIC)
(§10) Different dilutions of the compounds are inoculat ed with tested pathogenic microbes.
(§11) After incubation period of 96 well microplate, the results are meas ured using microplate reader. To determine at what level the MIC endpoint is established; subculture of test samples at different concentrati ons occurred in nutrient agar plates.

E. coli (ATCC 25922) [9] = test: Minimum Inhibitory Concentration (MIC); assay type: cell-based
Procedure: as §2, §3, §7, §9, §10, §11

[10] = tested on: P. vulgaris (RCMB 004(1)ATCC 13315); test: Minimum Inhibitory Concentration (MIC); assay type: cell-based
Procedure: as §2, §3, §7, §9, §10, §11

S. aureus (ATCC 25923) [11] = test: Minimum Inhibitory Concentration (MIC); assay type: cell-based
Procedure: as §2, §3, §7, §9, §10, §11

| Compound | CC50 at 24 h [1] | Inhibition zone diameters [2] | Inhibition zone diameters [3] | Inhibition zone diameters [4] | Inhibition zone diameters (E. coli (ATCC 25922) [5]) | Inhibition zone diameters [6] | Inhibition zone diameters (S. aureus (ATCC 25923) [7]) | MIC [8] | MIC (E. coli (ATCC 25922) [9]) | MIC [10] | MIC (S. aureus (ATCC 25923) [11]) | also measured |
| --- | --- | --- | --- | --- | --- | --- | --- | --- | --- | --- | --- | --- |
| CC(=NNc1nc(N2CCOCC2)nc(N2CCOCC2)n1)c1ccccc1O [DMOHT, 2-(1-(2-(4,6-dimorpholino-1,3,5-triazin-2-yl)hydrazono)ethyl)phenol] | 1000 µM | – | – | – | – | – | – | – | – | – | – | viability at 24 h, 2.5 µM ([1]; MRC-5, Table S12): 100%; viability at 24 h, 5 µM ([1]; MRC-5, Table S12): 100%; viability at 24 h, 9.8 µM ([1]; MRC-5, Table S12): 100%; viability at 24 h, 19.5 µM ([1]; MRC-5, sample conc. 19.5 µM, Table S12): 100%; viability at 24 h, 39.1 µM ([1]; MRC-5, Table S12): 100%; viability at 24 h, 78.2 µM ([1]; MRC-5, sample conc. 78.2 µM, Table S12): 100%; viability at 24 h, 156.5 µM ([1]; MRC-5, sample conc. 156.5 µM, Table S12): 97.9%; viability at 24 h, 312.9 µM ([1]; MRC-5, sample conc. 312.9 µM, Table S12): 89.6%; viability at 24 h, 625.8 µM ([1]; MRC-5, sample conc. 625.8 µM, Table S12): 67.6%; viability at 24 h, 1251.7 µM ([1]; MRC-5, sample conc. 1251.7 µM, Table S12): 38.2% |
| CC(=NNc1nc(N2CCOCC2)nc(N2CCOCC2)n1)c1ccccc1[O-].O=[N+]([O-])[O-].[Cu+2] [Complex 3, [Cu(DMOT)(NO3)]] | – | no antifungal activity | no antifungal activity | 24 mm | 15 mm | 13 mm | 12 mm | 78.125 µg/mL | 312.5 µg/mL | 1250 µg/mL | 1250 µg/mL | – |
| CC(=NNc1nc(N2CCOCC2)nc(N2CCOCC2)n1)c1ccccc1[O-].CC(=O)[O-].[Cu+2] [Complex 2, [Cu(DMOT)(CH3COO)]] | – | 15 mm | 10 mm | 25 mm | 14 mm | 15 mm | 11 mm | 39.06 µg/mL | 1250 µg/mL | 1250 µg/mL | 1250 µg/mL | – |
| CC(=NNc1nc(N2CCOCC2)nc(N2CCOCC2)n1)c1ccccc1N [DMAT, 2-(1-(2-(4,6-dimorpholino-1,3,5-triazin-2-yl)hydrazono)ethyl)aniline] | 716 µM | – | – | – | – | – | – | – | – | – | – | viability at 24 h, 2.5 µM ([1]; MRC-5, Table S10): 100%; viability at 24 h, 5 µM ([1]; MRC-5, Table S10): 100%; viability at 24 h, 9.8 µM ([1]; MRC-5, Table S10): 100%; viability at 24 h, 19.6 µM ([1]; MRC-5, sample conc. 19.6 µM, Table S10): 100%; viability at 24 h, 39.1 µM ([1]; MRC-5, Table S10): 100%; viability at 24 h, 78.4 µM ([1]; MRC-5, sample conc. 78.4 µM, Table S10): 100%; viability at 24 h, 156.8 µM ([1]; MRC-5, sample conc. 156.8 µM, Table S10): 99.8%; viability at 24 h, 313.7 µM ([1]; MRC-5, sample conc. 313.7 µM, Table S10): 89.3%; viability at 24 h, 627.4 µM ([1]; MRC-5, sample conc. 627.4 µM, Table S10): 53.9%; viability at 24 h, 1254.8 µM ([1]; MRC-5, sample conc. 1254.8 µM, Table S10): 26.1% |

Reference: publication PMC9106035, “Synthesis, X-ray Structure and Biological Studies of New Self-Assembled Cu(II) Complexes Derived from s-Triazine Schiff Base Ligand” (Molecules, 2022)
